In the NIST ThermoML archive (doi:10.1016/j.jct.2007.01.009):
Numbers after ± are expanded uncertainties.

Experiments:
[1] = 101.33 kPa, Liquid
[2] = xn = mol fraction of the nth substance listed; conditions: 283.15 K; 101 kPa; Liquid; Pycnometric method; x2 = 0

SMILES	mass density ([1]; 283.15 K)	mass density ([1]; 288.15 K)	mass density ([1]; 293.15 K)	mass density ([1]; 298.15 K)	mass density ([1]; 303.15 K)	mass density ([1]; 308.15 K)	mass density [2]
CC(O)CCCCO (configuration not stated) [1,5-hexanediol]	978.41 ± 0.69 kg/m3	975.51 ± 0.66 kg/m3	972.31 ± 0.64 kg/m3	968.91 ± 0.66 kg/m3	965.51 ± 0.67 kg/m3	962.15 ± 0.69 kg/m3	
O [water] + CC(O)CCC(C)O							999.7 ± 0.3 kg/m3
O [water] + CC(O)CCCCO							999.7 ± 0.3 kg/m3

The next lines start with the values.

mass density ([1]; 283.15 K)	mass density ([1]; 288.15 K)	mass density ([1]; 293.15 K)	mass density ([1]; 298.15 K)	mass density ([1]; 303.15 K)	mass density ([1]; 308.15 K)	mass density [2]	SMILES
958.87 ± 1.2 kg/m3	955.23 ± 1.2 kg/m3	951.68 ± 1.2 kg/m3	948.08 ± 1.2 kg/m3	944.54 ± 1.2 kg/m3	940.88 ± 1.2 kg/m3		CCCCC(O)CO (configuration not stated) [1,2-hexanediol]
968.85 ± 0.68 kg/m3	965.56 ± 0.65 kg/m3	962.17 ± 0.63 kg/m3	959.09 ± 0.65 kg/m3	955.72 ± 0.67 kg/m3	952.39 ± 0.68 kg/m3		CC(O)CCC(C)O (configuration not stated) [2,5-hexanediol]
						999.69 ± 0.3 kg/m3	O [water] + CCCCC(O)CO
						999.7 ± 0.3 kg/m3	O [water] + OCCCCCCO
